Here are results for 37 compounds from patent US20090111801A1, “SUBSTITUTED PYRAZINONE DERIVATIVES FOR USE AS A MEDICINE” (Janssen Pharmaceutica N.V., priority 2006, published 2009).

A value given as a limit tells only on which side of the number the result lay.

Experiment [1] deals with T1, hα2A receptor (Homo sapiens, UniProt P08913).
T1 construct: expressed in transfected cells; host or cells: CHO cells, stably transfected; membrane preparation
T1 sequence (P08913 1-465): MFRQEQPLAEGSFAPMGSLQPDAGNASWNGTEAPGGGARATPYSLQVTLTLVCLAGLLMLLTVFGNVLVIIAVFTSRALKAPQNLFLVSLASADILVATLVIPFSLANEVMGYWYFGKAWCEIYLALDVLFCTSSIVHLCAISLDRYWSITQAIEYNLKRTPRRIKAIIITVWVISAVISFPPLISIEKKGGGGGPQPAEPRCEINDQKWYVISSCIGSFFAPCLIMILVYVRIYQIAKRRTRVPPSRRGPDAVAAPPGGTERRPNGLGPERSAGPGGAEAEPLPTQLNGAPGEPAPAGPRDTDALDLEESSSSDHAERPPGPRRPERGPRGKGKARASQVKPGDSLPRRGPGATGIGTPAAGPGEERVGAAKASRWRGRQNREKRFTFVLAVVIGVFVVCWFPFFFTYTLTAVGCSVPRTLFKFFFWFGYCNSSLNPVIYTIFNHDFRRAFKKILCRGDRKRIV
Put plainly: Radioligand binding experiment for α2A-adrenoceptor ([3H]raulwolscine, CHO cell membranes). The settings on record: [3H]raulwolscine binding; for IC50: read-out: h-α2A pIC50 (converted).

Experiment [2] addresses T2, hα2C receptor (Homo sapiens, UniProt P18825).
T2 construct: expressed in transfected cells; host or cells: CHO cells, stably transfected; membrane preparation
T2 sequence (P18825 1-462): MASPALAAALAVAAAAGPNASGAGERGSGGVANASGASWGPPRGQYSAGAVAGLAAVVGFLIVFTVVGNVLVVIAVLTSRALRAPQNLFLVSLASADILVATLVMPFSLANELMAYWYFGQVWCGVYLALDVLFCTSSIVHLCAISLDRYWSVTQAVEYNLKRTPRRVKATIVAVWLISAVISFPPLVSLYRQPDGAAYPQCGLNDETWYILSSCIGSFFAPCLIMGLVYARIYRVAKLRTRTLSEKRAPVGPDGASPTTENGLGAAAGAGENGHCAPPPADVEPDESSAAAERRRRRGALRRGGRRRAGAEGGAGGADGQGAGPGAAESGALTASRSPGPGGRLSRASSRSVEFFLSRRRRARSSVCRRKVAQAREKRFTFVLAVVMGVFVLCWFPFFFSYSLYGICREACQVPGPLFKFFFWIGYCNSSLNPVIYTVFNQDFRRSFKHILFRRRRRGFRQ
Put plainly: Radioligand binding experiment for α2C-adrenoceptor ([3H]raulwolscine, CHO cell membranes). Conditions: [3H]raulwolscine binding; for IC50: read-out: h-α2C pIC50 (converted).

Experiment [3] addresses T3, 5HT-Transporter (Homo sapiens, UniProt P31645).
T3 construct: Human platelet membranes (Oceanix Biosciences Corporation, Hanover, Md., USA) were thawed; tissue Oceanix Biosciences Corporation, Hanover, Md., USA; host or cells: human platelet membranes
Put plainly: Binding experiment for the 5HT-transporter ([3H]paroxetine, human platelet membranes). Conditions: [3H]paroxetine 0.5 nM; for IC50: read-out: h-5HTT pIC50 (converted). The method in brief:
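Competition binding of [3H]paroxetine to human platelet membranes in Tris-HCl 50 mM, 120 mM NaCl, 5 mM KCl, with filtration and scintillation counting.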

T3 sequence (P31645 whole entry): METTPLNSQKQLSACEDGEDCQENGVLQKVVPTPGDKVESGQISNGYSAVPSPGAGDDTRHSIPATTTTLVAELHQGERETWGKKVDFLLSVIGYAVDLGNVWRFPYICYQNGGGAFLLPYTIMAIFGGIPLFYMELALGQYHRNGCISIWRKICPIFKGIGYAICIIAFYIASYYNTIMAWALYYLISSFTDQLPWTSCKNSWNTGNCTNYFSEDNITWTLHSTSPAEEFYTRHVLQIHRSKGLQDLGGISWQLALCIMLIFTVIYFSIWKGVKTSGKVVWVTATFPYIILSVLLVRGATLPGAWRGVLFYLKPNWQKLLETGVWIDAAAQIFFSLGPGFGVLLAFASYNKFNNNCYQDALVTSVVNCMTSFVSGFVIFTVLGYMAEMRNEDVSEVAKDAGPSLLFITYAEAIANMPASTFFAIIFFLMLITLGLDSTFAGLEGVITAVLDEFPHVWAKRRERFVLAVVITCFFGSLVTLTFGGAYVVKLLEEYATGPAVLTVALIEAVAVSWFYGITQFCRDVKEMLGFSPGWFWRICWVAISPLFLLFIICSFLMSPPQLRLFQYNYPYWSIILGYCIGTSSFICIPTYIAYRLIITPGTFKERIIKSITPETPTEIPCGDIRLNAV

For `C/C(=C\c1ccccc1)CN1CCC(Nc2nccn(CCN3CCCCC3)c2=O)CC1` [2-3], the figures for the IC50 in experiment [1], in experiment [2] and in experiment [3] were 63.1 nM, 6.31 nM and 3160 nM, respectively.

For the compound `C/C(=C\c1ccccc1)CN1CCC(Nc2nccn(-c3cccc(N4CCCCC4)c3)c2=O)CC1` [2-6], the IC50 in experiment [1] is 3.98 nM; in experiment [2], 2.51 nM; in experiment [3], 316 nM.

As to `C/C(=C\c1ccccc1)CN1CCC(Nc2nccn(-c3ccc(N4CCCCC4)cc3)c2=O)CC1` [2-7], the IC50 in experiment [1] was 50.1 nM; in experiment [2], 5.01 nM; in experiment [3], 1260 nM.

For `C/C(=C\c1ccccc1)CN1CCC(Nc2nccn(-c3ccc(N4CCCCC4)cc3)c2=O)CC1` [2-8], the IC50 was 39.8 nM in experiment [1], 10 nM in experiment [2] and 501 nM in experiment [3].

Take `C/C(=C\c1ccccc1)CN1CCC(Nc2nccn(-c3cccc(CN4CCCCC4)c3)c2=O)CC1` [2-9]: the IC50 in experiment [1] was 0.631 nM; in experiment [2] it was 0.2 nM; in experiment [3] it was 200 nM.

Consider `C/C(=C\c1ccccc1)CN1CCC(Nc2nccn(-c3ccc(CN4CCCCC4)cc3)c2=O)CC1` [2-10], for which the IC50 in experiment [1] was 31.6 nM; in experiment [2], 1.58 nM; in experiment [3] it was 251 nM.

Regarding `C/C(=C\c1ccccc1)CN1CCC(Nc2nccn(-c3ccc(C(=O)N4CCC(C)CC4)cc3)c2=O)CC1` [2-11], the IC50 in experiment [1] is 63.1 nM; in experiment [2] it was 6.31 nM; in experiment [3], 501 nM.

With `C/C(=C\c1ccccc1)CN1CCC(Nc2nccn(CC(=O)N3CCC(C(F)(F)F)CC3)c2=O)CC1` [2-12], the IC50 in experiment [1] was 63.1 nM; in experiment [2], 3.98 nM; in experiment [3], 2000 nM.

As for `C/C(=C\c1ccccc1)CN1CCC(Nc2nccn(CC(=O)N3CCC(Cc4ccccc4)CC3)c2=O)CC1` [2-13], the IC50 in experiment [1] was 100 nM; in experiment [2], 5.01 nM; in experiment [3], 251 nM.

`C/C(=C\c1ccccc1)CN1CCC(Nc2nccn(CC(=O)N3CCC(O)(c4ccccc4)CC3)c2=O)CC1` [2-14]: the IC50 in experiment [1] is 126 nM; in experiment [2], 7.94 nM; in experiment [3], 5010 nM.

For the compound `COC(=O)C1CCN(C(=O)Cn2ccnc(NC3CCN(C/C(C)=C/c4ccccc4)CC3)c2=O)CC1` [2-15], the figures for the IC50 in experiment [1], in experiment [2] and in experiment [3] were 126 nM, 3.98 nM and 3980 nM, respectively.

For the compound `COC(=O)C1CCN(C(=O)c2ccc(-n3ccnc(NC4CCN(C/C(C)=C/c5ccccc5)CC4)c3=O)cc2)CC1` [2-16], the IC50 in experiment [1] is 50.1 nM; in experiment [2], 5.01 nM; in experiment [3], 501 nM.

In the case of `C/C(=C\c1ccccc1)CN1CCC(Nc2nccn(CC(=O)N3CCC(N4CCCC4)CC3)c2=O)CC1` [2-17], the IC50 was 25.1 nM in experiment [1], 1.58 nM in experiment [2] and 2000 nM in experiment [3].

For the compound `C/C(=C\c1ccccc1)CN1CCC(Nc2nccn(-c3cccc(N4CCC(N5CCCC5)CC4)c3)c2=O)CC1` [2-18], the figures for the IC50 in experiment [1], in experiment [2] and in experiment [3] were 12.6 nM, 1.26 nM and 794 nM, respectively.

With `C/C(=C\c1ccccc1)CN1CCC(Nc2nccn(-c3ccc(N4CCC(N5CCCC5)CC4)cc3)c2=O)CC1` [2-19], the IC50 in experiment [1] is 50.1 nM; in experiment [2] it was 5.01 nM; in experiment [3], 631 nM.

For `C/C(=C\c1ccccc1)CN1CCC(Nc2nccn(CC(=O)N3CCN(C)CC3)c2=O)CC1` [2-20], the values for the IC50 in experiment [1], in experiment [2] and in experiment [3] were 63.1 nM, 3.16 nM and 2510 nM, respectively.

On to `C/C(=C\c1ccccc1)CN1CCC(Nc2nccn(-c3ccc(C(=O)N4CCN(C)CC4)cc3)c2=O)CC1` [2-21], for which the results for the IC50 in experiment [1], in experiment [2] and in experiment [3] were 100 nM, 10 nM and 501 nM, respectively.

Turning to `CC(=O)N1CCN(C(=O)Cn2ccnc(NC3CCN(C/C(C)=C/c4ccccc4)CC3)c2=O)CC1` [2-22], the IC50 in experiment [1] is 126 nM; in experiment [2], 25.1 nM; in experiment [3], greater than 10000 nM.

For `CC(=O)N1CCN(Cc2ccc(-n3ccnc(NC4CCN(C/C(C)=C/c5ccccc5)CC4)c3=O)cc2)CC1` [2-23], the “h-α2A pIC50” value in experiment [1] is 6.1. The “h-α2C pIC50” value in experiment [2] is 7.4. Moreover, the “h-5HTT pIC50” value in experiment [3] came to 5.1.

Regarding `C=CCN1CCN(C(=O)Cn2ccnc(NC3CCN(C/C(C)=C/c4ccccc4)CC3)c2=O)CC1` [2-24], the IC50 in experiment [1] was 100 nM; in experiment [2], 3.16 nM; in experiment [3], 5010 nM.

As to `C=CCN1CCN(C(=O)c2ccc(-n3ccnc(NC4CCN(C/C(C)=C/c5ccccc5)CC4)c3=O)cc2)CC1` [2-25], the IC50 is 126 nM in experiment [1], 7.94 nM in experiment [2] and 501 nM in experiment [3].

On to `C/C(=C\c1ccccc1)CN1CCC(Nc2nccn(CC(=O)N3CCN(c4ccccc4)CC3)c2=O)CC1` [2-26], for which the figures for the IC50 in experiment [1], in experiment [2] and in experiment [3] were 126 nM, 7.94 nM and 794 nM, respectively.

For `C/C(=C\c1ccccc1)CN1CCC(Nc2nccn(-c3cccc(N4CCN(c5ccccc5)CC4)c3)c2=O)CC1` [2-27], the values for the IC50 in experiment [1], in experiment [2] and in experiment [3] were 31.6 nM, 20 nM and 200 nM, respectively.

For `C/C(=C\c1ccccc1)CN1CCC(Nc2nccn(-c3ccc(N4CCN(c5ccccc5)CC4)cc3)c2=O)CC1` [2-28], the IC50 in experiment [1] was 100 nM; in experiment [2] it was 15.8 nM; in experiment [3], 794 nM.

Turning to `C/C(=C\c1ccccc1)CN1CCC(Nc2nccn(CC(=O)N3CCN(c4ccc(C)c(C)c4)CC3)c2=O)CC1` [2-29], the IC50 in experiment [1] is 158 nM; in experiment [2], 31.6 nM; in experiment [3] it was 100 nM.

Regarding `C/C(=C\c1ccccc1)CN1CCC(Nc2nccn(CC(=O)N3CCN(Cc4ccccc4)CC3)c2=O)CC1` [2-30], the values for the IC50 in experiment [1], in experiment [2] and in experiment [3] were 79.4 nM, 2 nM and 794 nM, respectively.

On to `C/C(=C\c1ccccc1)CN1CCC(Nc2nccn(-c3cccc(N4CCN(Cc5ccccc5)CC4)c3)c2=O)CC1` [2-31], for which the IC50 was 31.6 nM in experiment [1], 6.31 nM in experiment [2] and 398 nM in experiment [3].

For `C/C(=C\c1ccccc1)CN1CCC(Nc2nccn(-c3ccc(C(=O)N4CCN(Cc5ccccc5)CC4)cc3)c2=O)CC1` [2-32], the IC50 in experiment [1] is 200 nM; in experiment [2] it was 12.6 nM; in experiment [3] it was 1260 nM.

For the compound `C/C(=C\c1ccccc1)CN1CCC(Nc2nccn(-c3ccc(C(=O)N4CCN(CCc5ccccc5)CC4)cc3)c2=O)CC1` [2-33], the IC50 in experiment [1] is 126 nM; in experiment [2], 15.8 nM; in experiment [3], 200 nM.

Consider `C/C(=C\c1ccccc1)CN1CCC(Nc2nccn(-c3ccc(C(=O)N4CCN(c5ncccn5)CC4)cc3)c2=O)CC1` [2-34], for which the IC50 in experiment [1] is 100 nM; in experiment [2], 5.01 nM; in experiment [3], 631 nM.

For `CCOC(=O)N1CCN(C(=O)Cn2ccnc(NC3CCN(C/C(C)=C/c4ccccc4)CC3)c2=O)CC1` [2-35], the values for the IC50 in experiment [1], in experiment [2] and in experiment [3] were 158 nM, 31.6 nM and 2510 nM, respectively.

As to `CCOC(=O)N1CCN(Cc2cccc(-n3ccnc(NC4CCN(C/C(C)=C/c5ccccc5)CC4)c3=O)c2)CC1` [2-36], the IC50 in experiment [1] is 100 nM; in experiment [2] it was 10 nM; in experiment [3] it was 1580 nM.

For `CCOC(=O)N1CCN(Cc2ccc(-n3ccnc(NC4CCN(C/C(C)=C/c5ccccc5)CC4)c3=O)cc2)CC1` [2-37], the IC50 in experiment [1] was 398 nM; in experiment [2], 31.6 nM; in experiment [3], 6310 nM.

Regarding `C/C(=C\c1ccccc1)CN1CCC(Nc2nccn(CC(=O)N3CCN(C(=O)C4CCCO4)CC3)c2=O)CC1` (stereo not drawn) [2-38], the IC50 is 158 nM in experiment [1], 39.8 nM in experiment [2] and 7940 nM in experiment [3].

For the compound `C/C(=C\c1ccccc1)CN1CCC(Nc2nccn(CCN3CCOCC3)c2=O)CC1` [2-39], the IC50 in experiment [1] was 316 nM; in experiment [2], 20 nM; in experiment [3] it was 7940 nM.

For the compound `C/C(=C\c1ccccc1)CN1CCC(Nc2nccn(CC(=O)N3CCOCC3)c2=O)CC1` [2-41], the IC50 is 126 nM in experiment [1], 12.6 nM in experiment [2] and 3980 nM in experiment [3].

Take `C/C(=C\c1ccccc1)CN1CCC(Nc2nccn(-c3cccc(N4CCOCC4)c3)c2=O)CC1` [2-42]: the IC50 in experiment [1] was 7.94 nM; in experiment [2] it was 3.16 nM; in experiment [3], 794 nM.
